These results are taken from ChEMBL document CHEMBL1138538, “Design, synthesis, and evaluation of 10-N-substituted acridones as novel chemosensitizers in Plasmodium falciparum” (Antimicrob Agents Chemother, 2007).

In experiment [1] the target is Sodium-dependent serotonin transporter (Homo sapiens, UniProt P31645). Type of experiment: cell-based, HEK293.
Description: Inhibition of [3H]5HT uptake at human SERT expressed in HEK293 cells
Experiment [2] concerns the target Sodium-dependent noradrenaline transporter (Homo sapiens, UniProt P23975).
Description: Inhibition of [3H]norepinephrine uptake at human NET expressed in HEK293 cells
A further experiment can be described thus: cells. To be noted: Mus musculus, C57BL/6J, Splenocyte, 72 h.
Experiment [3] relates to Plasmodium falciparum. In words: microbe, parasite or virus in culture. To be noted: D6, 72 h.
Experiment [4] deals with Plasmodium falciparum. Kind of experiment: microbe, parasite or virus in culture. To be noted: Dd2, 72 h.
Experiment [5] has as its target Sodium-dependent dopamine transporter (Homo sapiens, UniProt Q01959).
Description: Inhibition of [3H]dopamine uptake at human DAT expressed in HEK293 cells
In experiment [6] the test system is Plasmodium falciparum. In words: Antimalarial activity after 72 hrs against chloroquine-resistant transporter 106/1'76I mutant Plasmodium falciparum infected in human erythrocytes by SYBR green assay. Type of experiment: functional, organism-based.
Experiment [7] relates to Plasmodium falciparum. Kind of experiment: Antimalarial activity after 72 hrs against chloroquine-resistant transporter 106/1'76T mutant Plasmodium falciparum infected human erythrocytes by SYBR green assay. Type of experiment: functional, organism-based.
Experiment [8] has as its system Plasmodium falciparum. Kind of experiment: Chemosensitizing activity after 72 hrs against chloroquine-sensitive Plasmodium falciparum D6 infected human erythrocytes as IC50 ratio desethylchloroquine +/- 500 nM drug by SYBR green assay. Type of experiment: functional.
Experiment [9] relates to Plasmodium falciparum. In words: Chemosensitizing activity after 72 hrs against chloroquine-resistant Plasmodium falciparum Dd2 infected human erythrocytes as IC50 ratio quinine +/- 500 nM by SYBR green assay. Type of experiment: functional.
Experiment [10] concerns Plasmodium falciparum. Kind of experiment: Chemosensitizing activity after 72 hrs against chloroquine-sensitive Plasmodium falciparum D6 infected human erythrocytes as IC50 ratio quinine +/- 500 nM by SYBR green assay. Type of experiment: functional.
In a further experiment the target is Histamine H1 receptor (Homo sapiens, UniProt P35367). Kind of experiment: biochemical. Type of experiment: cell-based, CHO.
Sequence of Histamine H1 receptor (P35367 whole entry): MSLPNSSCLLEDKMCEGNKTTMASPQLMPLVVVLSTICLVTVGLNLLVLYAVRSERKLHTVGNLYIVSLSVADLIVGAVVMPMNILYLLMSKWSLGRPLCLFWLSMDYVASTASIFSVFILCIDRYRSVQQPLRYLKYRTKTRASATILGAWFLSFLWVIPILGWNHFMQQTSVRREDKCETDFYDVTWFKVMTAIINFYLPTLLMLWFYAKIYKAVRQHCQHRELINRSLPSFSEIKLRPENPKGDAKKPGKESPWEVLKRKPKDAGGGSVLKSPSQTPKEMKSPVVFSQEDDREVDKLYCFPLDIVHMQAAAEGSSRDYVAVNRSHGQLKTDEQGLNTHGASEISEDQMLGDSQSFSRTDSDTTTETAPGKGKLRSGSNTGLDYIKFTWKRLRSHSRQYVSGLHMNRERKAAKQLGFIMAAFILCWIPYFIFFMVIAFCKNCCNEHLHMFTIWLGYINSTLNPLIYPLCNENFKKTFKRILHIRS
For experiment [11], the system named is Plasmodium falciparum. Kind of experiment: Antimalarial activity after 72 hrs against chloroquine-resistant transporter 106/1'76N mutant Plasmodium falciparum infected human erythrocytes by SYBR green assay. Type of experiment: functional, organism-based.
In experiment [12] the test system is Plasmodium falciparum. Kind of experiment: Chemosensitizing activity after 72 hrs against chloroquine-resistant Plasmodium falciparum Dd2 infected human erythrocytes as IC50 ratio desethylchloroquine +/- 500 nM by SYBR green assay. Type of experiment: functional.

What is called IC50 is the concentration that gives 50% inhibition. A higher IC50 goes with lower potency.

Sequence of Sodium-dependent dopamine transporter (Q01959 whole entry): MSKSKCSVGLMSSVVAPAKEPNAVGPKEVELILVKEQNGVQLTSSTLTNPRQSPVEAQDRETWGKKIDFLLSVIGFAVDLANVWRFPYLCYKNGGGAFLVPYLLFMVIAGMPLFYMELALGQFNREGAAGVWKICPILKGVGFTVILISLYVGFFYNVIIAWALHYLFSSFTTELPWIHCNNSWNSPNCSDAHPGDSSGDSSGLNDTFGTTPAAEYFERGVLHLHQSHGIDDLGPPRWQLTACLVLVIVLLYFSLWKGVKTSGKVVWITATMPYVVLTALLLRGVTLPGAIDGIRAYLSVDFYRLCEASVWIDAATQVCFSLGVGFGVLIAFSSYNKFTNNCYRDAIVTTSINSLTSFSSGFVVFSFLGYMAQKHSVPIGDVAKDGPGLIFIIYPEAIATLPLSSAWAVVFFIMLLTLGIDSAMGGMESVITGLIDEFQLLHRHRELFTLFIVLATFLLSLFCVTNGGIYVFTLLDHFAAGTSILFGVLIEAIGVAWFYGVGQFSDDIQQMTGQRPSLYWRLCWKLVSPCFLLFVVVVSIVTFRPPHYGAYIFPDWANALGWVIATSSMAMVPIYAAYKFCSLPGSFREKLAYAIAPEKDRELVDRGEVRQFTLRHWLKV
Sequence of Sodium-dependent serotonin transporter (P31645 whole entry): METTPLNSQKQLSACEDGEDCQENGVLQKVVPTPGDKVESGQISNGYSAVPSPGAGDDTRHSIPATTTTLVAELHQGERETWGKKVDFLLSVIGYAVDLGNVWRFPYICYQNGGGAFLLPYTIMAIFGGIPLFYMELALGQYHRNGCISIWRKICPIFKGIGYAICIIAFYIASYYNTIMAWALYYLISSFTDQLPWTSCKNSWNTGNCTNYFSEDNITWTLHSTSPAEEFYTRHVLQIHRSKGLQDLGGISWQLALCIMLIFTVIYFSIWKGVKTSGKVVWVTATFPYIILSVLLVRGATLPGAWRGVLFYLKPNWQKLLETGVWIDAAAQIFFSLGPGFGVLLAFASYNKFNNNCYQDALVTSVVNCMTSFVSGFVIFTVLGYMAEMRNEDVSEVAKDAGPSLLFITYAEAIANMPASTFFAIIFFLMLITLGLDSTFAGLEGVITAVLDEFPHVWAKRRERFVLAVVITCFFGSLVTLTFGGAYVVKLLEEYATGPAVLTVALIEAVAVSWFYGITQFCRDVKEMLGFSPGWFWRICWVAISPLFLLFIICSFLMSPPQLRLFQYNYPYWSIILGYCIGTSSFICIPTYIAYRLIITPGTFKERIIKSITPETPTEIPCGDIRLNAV
Sequence of Sodium-dependent noradrenaline transporter (P23975 whole entry): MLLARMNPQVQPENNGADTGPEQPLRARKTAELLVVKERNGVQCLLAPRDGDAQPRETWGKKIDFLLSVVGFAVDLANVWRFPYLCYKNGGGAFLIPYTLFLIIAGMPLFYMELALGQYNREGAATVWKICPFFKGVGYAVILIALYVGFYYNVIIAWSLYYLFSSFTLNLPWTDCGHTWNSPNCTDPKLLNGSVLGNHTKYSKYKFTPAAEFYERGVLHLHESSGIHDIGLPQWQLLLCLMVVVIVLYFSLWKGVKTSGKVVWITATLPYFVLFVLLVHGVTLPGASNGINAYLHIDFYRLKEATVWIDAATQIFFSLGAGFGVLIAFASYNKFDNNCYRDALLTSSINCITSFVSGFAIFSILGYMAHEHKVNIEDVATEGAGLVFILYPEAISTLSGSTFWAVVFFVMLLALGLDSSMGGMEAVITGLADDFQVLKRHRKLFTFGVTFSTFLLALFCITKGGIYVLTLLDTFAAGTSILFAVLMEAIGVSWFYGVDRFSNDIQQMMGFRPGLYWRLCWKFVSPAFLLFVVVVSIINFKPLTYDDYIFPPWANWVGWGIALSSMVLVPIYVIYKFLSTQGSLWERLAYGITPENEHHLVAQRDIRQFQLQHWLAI
Description for Histamine H1 receptor: Displacement of [3H]pyrilamine from human histamine receptor subtype 1 expressed in CHO cells
Description for cells: Cytotoxicity against C57BL/6J mouse splenocytes after 72 hrs by alamar blue assay

`CCN(CC)CCn1c2ccccc2c(=O)c2ccccc21`: the half-maximal inhibitory concentration (IC50) in experiment [1] was > 10 µM; in [2], > 10 µM; in the experiment “cells”, 28.5 µM; with Plasmodium falciparum [3] it was 11.8 µM; in the experiment on Plasmodium falciparum [4], 7.5 µM; in experiment [5], > 10 µM.
As to `O=c1c2ccccc2n(CCCCCCCl)c2ccccc12`, the half-inhibitory concentration (IC50) in the experiment “cells” came to 59.5 µM; in the experiment with Plasmodium falciparum [3], 1.3 µM; in the experiment on Plasmodium falciparum [4], 2.6 µM.
For the compound `CCN(CC)CCCn1c2ccccc2c(=O)c2ccccc21`, the IC50 in [1] was > 10 µM; in experiment [2], > 10 µM; in the experiment “cells”, 22.5 µM; in the experiment on Plasmodium falciparum [3], 8.1 µM; in the experiment on Plasmodium falciparum [4], 1.6 µM; in experiment [5], > 10 µM.
With `CCN(CC)CCCCCn1c2ccccc2c(=O)c2ccccc21`, the IC50 is 7.8 µM in experiment [1]; 9.1 µM in experiment [2]; 30.5 µM in the experiment “cells”; 3.7 µM in the experiment with Plasmodium falciparum [3]; 5.8 µM with Plasmodium falciparum [4]; > 10 µM in experiment [5].
As for `CCN(CC)CCCCCCn1c2ccccc2c(=O)c2ccccc21`, the IC50 in the experiment on Plasmodium falciparum [6] was 3.66 µM; in experiment [1] it was 3.5 µM; in the experiment with Plasmodium falciparum [7], 4.5 µM; in experiment [2], > 10 µM; in “cells”, 26.4 µM; on Histamine H1 receptor, 3.6 µM. Also, the half-maximal inhibitory concentration (IC50) with Plasmodium falciparum [11] was 0.596 µM; in the experiment with Plasmodium falciparum [3], 3.2 µM; in the experiment on Plasmodium falciparum [4], 2.7 µM; in experiment [5] it was > 10 µM. Also, the “Ratio IC50” value in the experiment with Plasmodium falciparum [8] amounted to 0.17; with Plasmodium falciparum [9], 1; in the experiment with Plasmodium falciparum [10] it was 0.3; in the experiment on Plasmodium falciparum [12], 1.01.
Take `CCN(CC)CCCCCCCCn1c2ccccc2c(=O)c2ccccc21`: the IC50 in the experiment “cells” amounted to 17.6 µM; in the experiment on Plasmodium falciparum [3] it was 2.6 µM; in the experiment on Plasmodium falciparum [4], 1.8 µM.
On to `CCN(CC)CCCCn1c2ccccc2c(=O)c2ccccc21`, for which the concentration for half-maximal inhibition (IC50) in [1] is > 10 µM; in [2], > 10 µM; in the experiment “cells” it was 34.5 µM; in the experiment with Plasmodium falciparum [3] it was 7.6 µM; in the experiment with Plasmodium falciparum [4], 10.2 µM; in experiment [5] it was > 10 µM.
For the compound `CN(C)CCC(c1ccc(Cl)cc1)c1ccccn1` (centres undefined) [CHLORPHENIRAMINE], the IC50 in the experiment “cells” is 33.4 µM; in the experiment on Plasmodium falciparum [3], 61.2 µM; with Plasmodium falciparum [4] it was 3.9 µM.
As for `CCNCCCC(C)Nc1ccnc2cc(Cl)ccc12` (centres undefined) [DESETHYLCHLOROQUINE], the values for the IC50 with Plasmodium falciparum [3] and in the experiment with Plasmodium falciparum [4] were 0.0182 µM and 0.372 µM, respectively.
